Measurements published in patent US8871794B2, “Small-molecule agonists for type-2 orexin receptor” (Board of Regents, The University of Texas System, priority 2008, dated 2014).
Where two headings read alike, the source gives them in different places.

Key:
[1] = IP pharmacokinetics in C57BL/6 mice (plasma and brain); assay type: in vivo, mouse; settings: for AUC / Clearance / Kp / Cmax / half-life: IP 20 mg/kg; for Kp: brain/plasma, ip, 20 mg/kg; for half-life: read-out: Terminal half life
Protocol: Pharmacokinetics: Methods: Chembridge Compound 6037874 (“Yan7874”) was provided as a powdered stock and dissolved in DMSO at 50 mg/ml. The compound was formulated as 5% DMSO/5% Cremaphor EL/90% 5% dextrose, pH 7.2 such that compound could be administered to mice at 10-20 mg/kg in a volume of 0.2 ml by IV bolus.
A second experiment was conducted using 24 C57BL/6 mice (NCI, male, 6 weeks of age). These mice were weighed and injected with 20 mg/kg of compound formulated as described above IP in 0.2 ml. […] The mice were sacrificed as above in groups of three by inhalation overdose of CO2 and blood and brain obtained and processed as above.
An analytical method was developed to detect Yan7874 using LC/MS/MS.
A standard curve was developed in plasma in the following manner. 100 μl of plasma is spiked with varying concentrations of Yan7874. The plasma is allowed to sit 10′ at room temperature after vortexing. 200 μl of acetonitrile is added to precipitate plasma proteins and release bound drug. After vortexing, the sample is incubated 10′ at room temperature. 700 μl of PBS is added and the sample is centrifuged at 14,000 rpm in a standard microcentrifuge for 5′. 900 μl of supernatant is added to 1 ml of PBS. The entire sample is passed over a Waters OASIS HLB solid phased extraction column already primed by addition of 2 ml methanol and 2 ml H2O. The column is washed once with 2 ml of 5% methanol/2% NH4OH in H2O and once with 2 ml of 5% methanol/2% acetic acid in H2O and compound is eluted by addition of 2 ml of methanol containing 2% NH4OH. 500 μl of this is added to 500 μl of H2O containing 0.2% formic acid (final formic acid 0.1%). Samples are prepared in the same manner without addition of spiked compound. Brain tissue is prepared by homogenizing in 3× volume of PBS (weight in grams×3=volume in ml to add). 100 μl of blank brain lysate is used for preparation of standard curve samples while 100 μl of sample brain lysate is used for preparation of samples. To calculate brain levels, the concentration in ng/ml calculated from the standard curve is multiplied by the total volume of lysate (a value in ml estimated from the 3× volume of PBS added +1× volume to account for brain tissue itself) and then divided by the weight of the brain in grams. A value of 3× above the signal obtained from blank plasma or brain lysate is designated the limit of detection (LOD). The LOD for plasma is 2640 and for brain 459. The limit of quantitation (LOQ) is the lowest concentration at which back calculation yields a concentration within 20% of theoretical. The LOQ for both plasma and brain is 5 ng/ml. In general back calculation of points on both curves yielded values within 20% of theoretical over 4 orders of magnitude (10,000 to 5 ng/ml) for both sample types.

OX1R = target: T1, OX1R (Homo sapiens, UniProt O43613); test: Intracellular Calcium Transient Assay in OX1R-expressing CHO cells; assay type: cell-based
T1 construct: Open reading frames of OX1R, OX2R and GRP (control) receptor were inserted into a bicistronic retrovirus expression vector; expressed in transfected cells; host or cells: CHO cells harboring ecotropic retroviral receptor, infected with retrovirus and selected with puromycin
T1 sequence (O43613 1-425): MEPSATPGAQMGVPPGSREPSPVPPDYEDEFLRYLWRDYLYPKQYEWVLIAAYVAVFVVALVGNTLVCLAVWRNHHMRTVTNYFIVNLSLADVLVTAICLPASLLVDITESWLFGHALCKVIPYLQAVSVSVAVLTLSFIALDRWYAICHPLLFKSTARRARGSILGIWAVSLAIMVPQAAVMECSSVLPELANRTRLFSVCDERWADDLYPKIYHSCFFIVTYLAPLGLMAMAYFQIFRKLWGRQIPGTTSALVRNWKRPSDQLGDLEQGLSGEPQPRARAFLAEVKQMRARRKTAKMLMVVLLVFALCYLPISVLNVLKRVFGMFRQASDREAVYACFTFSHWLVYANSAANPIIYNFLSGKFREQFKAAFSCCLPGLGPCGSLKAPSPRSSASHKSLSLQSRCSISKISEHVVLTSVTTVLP
Protocol: DNA Construction: Open reading frames of OX1R, OX2R and GRP (control) receptor were inserted into a bicistronic retrovirus expression vector, pMXs-IRES-puror (pMXs-IP), which carried a FLAG™ epitope cDNA sequence at the beginning of the ORF sequences encoding their human polypeptides.
Transfection and retrovirus production: Transfection was carried out using FuGENE 6 (Roche Diagnostics Corp.) according to the manufacturer's recommendations. Retroviruse fluid was harvested after 48 hours post transfection.
Cell lines: To generate receptor expressing cells, CHO cells harboring ecotropic retroviral receptor were infected with a retroviral supernatant. After 24 hours post infection, the retrovirus supernatant was removed and infected cells were selected with 10 μg/ml of puromycin (Sigma-Aldrich, St. Louis, Mo.). […]
0.5 ml aliquot of the cell suspension was stimulated by addition of 5 μl of compound dissolved in DMSO. Changes of [Ca^2+]i transients in cells were measured at RT by using CAF-110 Intracellular Ion Analyser (JASCO, Tokyo) with the excitation wave lengths of 340 nm and 380 nm and emission wavelength of 500 nm

acute reaction after injection ([1]; 20 mg/kg IP): no acute reactions were noted | AUC ([1]; brain): 133,194 min*ng/g | Clearance ([1]; brain): 2.9 g/min | Clearance ([1]; plasma): 2.7 mL/min | Kp ([1]; male, C57BL/6, mouse, read-out: Blood Brain Penetration Ratio: AUC brain/AUC plasma): 0.9 | Kp ([1]; male, C57BL/6, mouse, read-out: Blood Brain Penetration Ratio: Cmax brain/Cmax plasma): 0.3 | Cmax ([1]; male, C57BL/6, mouse, brain): 337 ng/g | half-life ([1]; male, C57BL/6, mouse, brain): 3.39 h | Cmax ([1]; male, C57BL/6, mouse, plasma): 1080 ng/mL | AUC ([1]; male, C57BL/6, mouse, plasma, read-out: AUC (converted)): 2400 ng·h/mL | half-life ([1]; male, C57BL/6, mouse, plasma): 2.75 h | Ca2+ response (OX1R): weaker response
SMILES: Cc1ccc(Cn2c(=N)n(CC(O)c3ccc(Cl)c(Cl)c3)c3ccccc32)cc1 (stereo not drawn) [Compound 130699]
